Consider 28 compounds from US12692247B2, “Phenyl- and pyridopyrazole derivatives as inhibitors of DDR1” (Redx Pharma Limited, priority 2021, dated 2026).

One test deals with T1, Recombinant human DDR1 (Homo sapiens, UniProt Q08345).
T1 construct: Recombinant human DDR1 (2.5 nM; aa440-876 containing a GST tag)
Description: LanthaScreen Eu Kinase Binding Assay, DDR1. Conditions: recombinant human DDR1 (2.5 nM; aa440-876, GST tag), Kinase Tracer 178 5 nM, time-resolved fluorescence, at least two independent replicates; read-out: DDR1 pIC50 (converted). On the procedure:
(§1) DDR1 and DDR2 Biochemical Assay Method
(§2) The capacity of compounds to bind to DDR1 and DDR2 was quantified using a LanthaScreen Eu Kinase Binding Assay. Recombinant human DDR1 (2.5 nM; aa440-876 containing a GST tag) and DDR2 (1.75 nM; aa427-855 containing a GST tag) were diluted in assay buffer (50 mM HEPES pH7.3, 10 mM MgCl2, 1 mM EGTA and 0.01% Tween) with various concentrations of compound in a 384-well plate and a volume of 5 uL. After a 30-minute incubation at room temperature, 2.5 uL of Eu-anti GST antibody (diluted to 1 nM in assay buffer) plus Kinase Tracer 178 (diluted in assay buffer to 5 nM for DDR1 and 10 nM for DDR2) were added to the plate. Following 60-minute incubation at room temperature, time-resolved fluorescence was measured on a BMG Labtech PHERAstar plate reader. DMSO (1%) and reference compound (1 μM) were used to generate the Max and Min assay signals, respectively. Data was analysed using a four-parameter logistic model to calculate IC50 values, with at least two independent replicates were performed for each compound.

In the next test the target is T2, Recombinant human DDR2 (Homo sapiens, UniProt Q16832).
T2 construct: DDR2 (1.75 nM; aa427-855 containing a GST tag)
T2 sequence (Q16832 427-855): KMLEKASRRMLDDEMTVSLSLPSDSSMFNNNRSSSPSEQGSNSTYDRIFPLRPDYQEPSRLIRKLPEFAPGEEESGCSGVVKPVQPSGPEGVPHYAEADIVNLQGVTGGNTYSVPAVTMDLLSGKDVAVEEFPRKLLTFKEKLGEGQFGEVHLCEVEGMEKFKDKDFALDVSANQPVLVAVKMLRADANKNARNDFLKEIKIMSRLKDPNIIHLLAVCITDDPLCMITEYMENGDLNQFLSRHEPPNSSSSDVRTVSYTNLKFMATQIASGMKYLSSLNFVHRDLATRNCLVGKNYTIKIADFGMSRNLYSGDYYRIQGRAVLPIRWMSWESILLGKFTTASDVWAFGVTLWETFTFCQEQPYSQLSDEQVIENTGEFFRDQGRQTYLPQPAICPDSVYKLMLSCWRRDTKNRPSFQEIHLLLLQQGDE
In words: LanthaScreen Eu Kinase Binding Assay, DDR2. The settings on record: recombinant human DDR2 (1.75 nM; aa427-855, GST tag), Kinase Tracer 178 10 nM, time-resolved fluorescence, at least two independent replicates; read-out: DDR2 pIC50 (converted). The procedure:
as §1, §2

T1 sequence (Q08345 440-876 isoform Q08345-2): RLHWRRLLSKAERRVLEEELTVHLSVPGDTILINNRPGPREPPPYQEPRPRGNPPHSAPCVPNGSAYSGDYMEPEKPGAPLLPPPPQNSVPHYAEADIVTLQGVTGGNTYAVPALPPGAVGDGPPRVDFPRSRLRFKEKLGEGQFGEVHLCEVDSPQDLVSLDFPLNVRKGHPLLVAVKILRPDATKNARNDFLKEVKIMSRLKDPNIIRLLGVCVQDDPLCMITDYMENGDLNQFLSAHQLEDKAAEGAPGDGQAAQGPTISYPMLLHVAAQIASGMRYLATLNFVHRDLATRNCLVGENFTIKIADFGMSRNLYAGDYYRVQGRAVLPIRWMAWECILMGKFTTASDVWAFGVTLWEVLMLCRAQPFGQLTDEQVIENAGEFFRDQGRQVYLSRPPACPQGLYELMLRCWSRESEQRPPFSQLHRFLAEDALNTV

In the case of `O=C(Cn1ccc2cccc(Nc3ccc4[nH]ncc4c3)c2c1=O)NCC(F)(F)F` [Example 1, 2-[8-(1H-indazol-5-ylamino)-1-oxo-2-isoquinolyl]-N-(2,2,2-trifluoroethyl)acetamide], the IC50 is 10 to 100 nM on Recombinant human DDR1 and ≥ 1000 nM at Recombinant human DDR2.

Take `O=C(Cn1ccc2cccc(Nc3ccc4cn[nH]c4c3)c2c1=O)NCC(F)(F)F` [Example 2]: the IC50 was 10 to 100 nM at Recombinant human DDR1 and ≥ 1000 nM on Recombinant human DDR2.

Regarding `Cn1ncc2cc(Nc3cccc4ccn(CC(=O)NCC(F)(F)F)c(=O)c34)ccc21` [Example 3, 2-[8-[(1-methylindazol-5-yl)amino]-1-oxo-2-isoquinolyl]-N-(2,2,2-trifluoroethyl)acetamide], the IC50 on Recombinant human DDR1 was 10 to 100 nM; on Recombinant human DDR2, 100 to 1000 nM.

Turning to `Cc1ccc(Nc2ccc3c(cnn3C)c2)c2c(=O)n(CC(=O)NCC(F)(F)F)ccc12` [Example 8, 2-[5-methyl-8-[(1-methylindazol-5-yl)amino]-1-oxo-2-isoquinolyl]-N-(2,2,2-trifluoroethyl)acetamide], the IC50 on Recombinant human DDR1 and on Recombinant human DDR2 was ≥ 1000 nM each time.

With `CC(C)CNC(=O)Cn1ccc2cccc(Nc3ccc4c(cnn4C)c3)c2c1=O` [Example 9, N-isobutyl-2-[8-[(1-methylindazol-5-yl)amino]-1-oxo-2-isoquinolyl]acetamide], the IC50 at Recombinant human DDR1 was 10 to 100 nM; on Recombinant human DDR2, 100 to 1000 nM.

In the case of `Cn1ncc2cc(Nc3cccc4ccn(CC(=O)NCC(F)F)c(=O)c34)ccc21` [Example 10], the IC50 is 10 to 100 nM on Recombinant human DDR1 and 100 to 1000 nM on Recombinant human DDR2.

Consider `Cn1ncc2cc(Nc3cccc4ccn(CC(=O)N5CCOCC5)c(=O)c34)ccc21` [Example 11], for which the IC50 on Recombinant human DDR1 and on Recombinant human DDR2 was 100 to 1000 nM in each case.

Turning to `CC(NC(=O)Cn1ccc2cccc(Nc3ccc4c(cnn4C)c3)c2c1=O)C(F)(F)F` (centres unmarked) [Example 12, 2-[8-[(1-methylindazol-5-y)amino]-1-oxo-2-isoquinolyl]-N-(2,2,2-trifluoro-1-methyl-ethyl)acetamide], the IC50 on Recombinant human DDR1 and at Recombinant human DDR2 was 10 to 100 nM in each case.

Consider `CN1CCN(C(=O)Cn2ccc3cccc(Nc4ccc5c(cnn5C)c4)c3c2=O)CC1` [Example 13, 8-[(1-methylindazol-5-yl)amino]-2-[2-(4-methylpiperazin-1-yl)-2-oxo-ethyl]isoquinolin-1-one], for which the IC50 on Recombinant human DDR1 and on Recombinant human DDR2 was ≥ 1000 nM each time.

For the compound `CCNC(=O)Cn1ccc2cccc(Nc3ccc4c(cnn4C)c3)c2c1=O` [Example 14, N-ethyl-2-[8-[(1-methylindazol-5-yl)amino]-1-oxo-2-isoquinolyl]acetamide], the IC50 on Recombinant human DDR1 was 100 to 1000 nM; at Recombinant human DDR2, ≥ 1000 nM.

`Cn1ncc2cc(Nc3cccc4ccn(CC(=O)NC5CCOCC5)c(=O)c34)ccc21` [Example 15, 2-[8-[(1-methylindazol-5-yl)amino]-1-oxo-2-isoquinolyl]-N-tetrahydropyran-4-yl-acetamide]: the IC50 is 100 to 1000 nM on Recombinant human DDR1 and ≥ 1000 nM at Recombinant human DDR2.

Take `Cn1ncc2cc(Nc3cccc4ccn(CC(=O)NCC5CC5)c(=O)c34)ccc21` [Example 16]: the results for the IC50 on Recombinant human DDR1 and on Recombinant human DDR2 were 10 to 100 nM and 100 to 1000 nM, respectively.

In the case of `Cn1ncc2cc(Nc3cccc4ccn(CC(=O)NC5CC5)c(=O)c34)ccc21` [Example 17, N-cyclopropyl-2-[8-[(1-methylindazol-5-yl)amino]-1-oxo-2-isoquinolyl]acetamide], the figures for the IC50 on Recombinant human DDR1 and at Recombinant human DDR2 were 100 to 1000 nM and ≥ 1000 nM, respectively.

Turning to `CN1CCC(NC(=O)Cn2ccc3cccc(Nc4ccc5c(cnn5C)c4)c3c2=O)CC1` [Example 18, 2-[8-[(1-methylindazol-5-y)amino]-1-oxo-2-isoquinolyl]-N-(1-methyl-4-piperidyl)acetamide], the IC50 on Recombinant human DDR1 and at Recombinant human DDR2 was ≥ 1000 nM each time.

With `C[C@H](NC(=O)Cn1ccc2cccc(Nc3ccc4c(cnn4C)c3)c2c1=O)C(F)(F)F` [Example 19, 2-[8-[(1-methylindazol-5-yl)amino]-1-oxo-2-isoquinolyl]-N-[(1S)-2,2,2-trifluoro-1-methyl-ethyl]acetamide], the results for the IC50 at Recombinant human DDR1 and on Recombinant human DDR2 were < 10 nM and 10 to 100 nM, respectively.

For `C[C@@H](NC(=O)Cn1ccc2cccc(Nc3ccc4c(cnn4C)c3)c2c1=O)C(F)(F)F` [Example 20, 2-[8-[(1-methylindazol-5-yl)amino]-1-oxo-2-isoquinolyl]-N-[(1R)-2,2,2-trifluoro-1-methyl-ethyl]acetamide], the IC50 at Recombinant human DDR1 and on Recombinant human DDR2 was 100 to 1000 nM in each case.

For the compound `Cn1ncc2cc(Nc3cccc4ccn(CC(=O)NC5(C(F)(F)F)CC5)c(=O)c34)ccc21` [Example 21, 2-[8-[(1-methylindazol-5-yl)amino]-1-oxo-2-isoquinolyl]-N-[1-(trifluoromethyl)cyclopropyl]acetamide], the IC50 was 10 to 100 nM at Recombinant human DDR1 and 100 to 1000 nM at Recombinant human DDR2.

`CN(CC(F)(F)F)C(=O)Cn1ccc2cccc(Nc3ccc4c(cnn4C)c3)c2c1=O` [Example 23, N-methyl-2-[8-[(1-methylindazol-5-yl)amino]-1-oxo-2-isoquinolyl]-N-(2,2,2-trifluoroethyl)acetamide]: the IC50 on Recombinant human DDR1 is 10 to 100 nM; at Recombinant human DDR2, 100 to 1000 nM.

As to `Cn1ncc2cc(Nc3cccc4ccn(CC(=O)Nc5cccnc5)c(=O)c34)ccc21` [Example 24, 2-[8-[(1-methylindazol-5-yl)amino]-1-oxo-2-isoquinolyl]-N-(3-pyridyl)acetamide], the figures for the IC50 at Recombinant human DDR1 and at Recombinant human DDR2 were 100 to 1000 nM and ≥ 1000 nM, respectively.

Consider `Cn1ncc2cc(Nc3cccc4ccn(CC(=O)Nc5cncnc5)c(=O)c34)ccc21` [Example 25, 2-[8-[(1-methylindazol-5-yl)amino]-1-oxo-2-isoquinolyl]-N-pyrimidin-5-yl-acetamide], for which the IC50 at Recombinant human DDR1 is 100 to 1000 nM; at Recombinant human DDR2, ≥ 1000 nM.

In the case of `Cn1ncc2cc(Nc3cccc4ccn(CC(=O)Nc5ccncc5)c(=O)c34)ccc21` [Example 26, 2-[8-[(1-methylindazol-5-yl)amino]-1-oxo-2-isoquinolyl]-N-(4-pyridyl)acetamide], the IC50 on Recombinant human DDR1 and on Recombinant human DDR2 was ≥ 1000 nM throughout.

For the compound `Cn1ncc2cc(Nc3cccc4ccn(CC(=O)Nc5ccc(C(F)(F)F)cc5)c(=O)c34)ccc21` [Example 30, 2-[8-[(1-methylindazol-5-yl)amino]-1-oxo-2-isoquinolyl]-N-[4-(trifluoromethyl)phenyl]acetamide], the IC50 at Recombinant human DDR1 was < 10 nM; on Recombinant human DDR2 it was ≥ 1000 nM.

As for `Cn1ncc2cc(Nc3cccc4ccn(CC(=O)Nc5cncc(C(F)(F)F)c5)c(=O)c34)ccc21` [Example 31, 2-[8-[(1-methylindazol-5-yl)amino]-1-oxo-2-isoquinolyl]-N-[5-(trifluromethyl)-3-pyridyl]acetamide], the IC50 on Recombinant human DDR1 and at Recombinant human DDR2 was < 10 nM throughout.

As to `CC(=O)c1cccc(NC(=O)Cn2ccc3cccc(Nc4ccc5c(cnn5C)c4)c3c2=O)c1` [Example 32, N-(3-acetylphenyl)-2-[8-[(1-methylindazol-5-yl)amino]-1-oxo-2-isoquinolyl]acetamide], the IC50 was < 10 nM on Recombinant human DDR1 and 10 to 100 nM at Recombinant human DDR2.

Regarding `Cn1ncc2cc(Nc3cccc4ccn(CC(=O)NC(C5CC5)C(F)(F)F)c(=O)c34)ccc21` (centres unmarked) [Example 33, N-(1-cyclopropyl-2,2,2-trifluoro-ethly)-2-[8-[(1-methylindazol-5-yl)amino]-1-oxo-2-isoquinolyl]acetamide], the IC50 on Recombinant human DDR1 is 10 to 100 nM; at Recombinant human DDR2, 100 to 1000 nM.

As for `Cn1ccc(NC(=O)Cn2ccc3cccc(Nc4ccc5c(cnn5C)c4)c3c2=O)n1` [Example 34, 2-[8-[(1-methylindazol-5-yl)amino]-1-oxo-2-isoquinolyl]-N-(1-methylpyrazol-3-yl)acetamide], the IC50 on Recombinant human DDR1 was 100 to 1000 nM; on Recombinant human DDR2 it was ≥ 1000 nM.

As for `Cn1ncc2cc(Nc3cccc4ccn(CC(=O)NC(c5ccccc5)C(F)(F)F)c(=O)c34)ccc21` (centres unmarked) [Example 35, 2-[8-[(1-methylindazol-5-yl)amino]-1-oxo-2-isoquinolyl]-N-(2,2,2-trifluoro-1-phenyl-ethyl)acetamide], the figures for the IC50 on Recombinant human DDR1 and at Recombinant human DDR2 were 10 to 100 nM and 100 to 1000 nM, respectively.

Consider `Cn1nccc1NC(=O)Cn1ccc2cccc(Nc3ccc4c(cnn4C)c3)c2c1=O` [Example 36, 2-[8-[(1-methylindazol-5-yl)amino]-1-oxo-2-isoquinolyl]-N-(2-methylpyrazol-3-yl)acetamide], for which the values for the IC50 at Recombinant human DDR1 and at Recombinant human DDR2 were 10 to 100 nM and 100 to 1000 nM, respectively.
